Measured values from the RepoRT retention time repository (doi:10.1016/j.talanta.2015.03.003).

Assay: RP, Merck Supelco Ascentis Express C18, 150 × 2.1 mm, 2.7 µm, 55 °C, 0.26 mL/min, estimated dead time 1.3 min; A: 60% water + 40% acetonitrile + 0.1% formic acid + 10 mM ammonium formate; B: 10% acetonitrile + 90% isopropanol + 0.1% formic acid + 10 mM ammonium formate; gradient (min/%B) 0/32 1.5/32 4/45 5/52 8/58 11/66 14/70 18/75 21/97 25/97 25.1/32 30/32
Conditions: stereoisomer not certain

SMILES	LC retention time [min]
CC(CCC(=O)O)C1CCC2C3CCC4CC(O)CCC4(C)C3CC(O)C12C (centres undefined) [DCA]	3.5
CC(C)CCCC(C)C1CCC2C3CC4OC45CC(O)CCC5(C)C3CCC12C (centres undefined) [Chol_Epoxide]	12.8
CC(C)=CCCC(C)C1CCC2C3CC=C4CC(O)CCC4(C)C3CCC12C (centres undefined) [desmosterol]	13.8
CC(C)C(C)C=CC(C)C1CCC2C3CC=C4CC(O)CCC4(C)C3CCC12C (centres undefined) [brassicasterol]	15.1
CCCCCCCCCCCCCCCC(=O)OCC(COC(=O)CCCCCCCCCCCCCCC)OC(=O)CCCCCCCCCCCCCCC [glyceryltripalmitate]	24.2
CC1CCC2(CO)CCC3(C)C(=CCC4C5(C)CCC(O)C(C)(C)C5CCC43C)C2C1C (centres undefined) [uvaol]	7.6
CC(C)CCCC(C)C1CCC2C3CC=C4CC(O)CCC4(C)C3CCC12C (centres undefined) [CHOLESTEROL]	15.3
CC(C)CCCC(C)C1CCC2C3CCC4CCCCC4(C)C3CCC12C (centres undefined) [5alfa-colestane]	9.2
CC(=O)C1CCC2C3CCC4=CC(=O)CCC4(C)C3CCC12C (centres undefined) [Progesterone]	2.7
CC(CCC(=O)O)C1CCC2C3C(O)C(O)C4CC(O)CCC4(C)C3CCC12C (centres undefined) [MCA]	1.9
CC(CCC(=O)NCC(=O)O)C1CCC2C3C(O)CC4CC(O)CCC4(C)C3CC(O)C12C (centres undefined) [G-CA]	1.6
CC(CCC(=O)NCC(=O)O)C1CCC2C3CCC4CC(O)CCC4(C)C3CC(O)C12C (centres undefined) [G-DCA]	2.1
CC(C)C(C)C=CC(C)C1CCC2C3=CC=C4CC(O)CCC4(C)C3CCC21C (centres undefined) [ergosterol]	14.2
CCCCCCCCCCCCCCCCCC(=O)OCC(COC(=O)CCCCCCCCCCCCCCCCC)OC(=O)CCCCCCCCCCCCCCCCC [glyceryltristearate]	24.9
CC(C)C(C)CCC(C)C1CCC2C3CC=C4CC(O)CCC4(C)C3CCC12C (centres undefined) [campesterol]	16
CC(CCC(=O)O)C1CCC2C3CCC4CC(O)CCC4(C)C3CCC12C (centres undefined) [LCA]	5.6
CCC(C=CC(C)C1CCC2C3CC=C4CC(O)CCC4(C)C3CCC12C)C(C)C (centres undefined) [stigmasterol]	16
CC(CCC(=O)O)C1CCC2C3C(O)CC4CC(O)CCC4(C)C3CC(O)C12C (centres undefined) [CA]	2.2
CC(CCC(=O)NCCS(=O)(=O)O)C1CCC2C3CCC4CC(O)CCC4(C)C3CC(O)C12C (centres undefined) [T-DCA]	1.6
C=C(C)C1CCC2(C)CCC3(C)C(CCC4C5(C)CCC(O)C(C)(C)C5CCC43C)C12 (centres undefined) [lupeol]	15.2
CC(C)CCCC(C)C1CCC2C3CCC4CC(O)CCC4(C)C3CCC12C (centres undefined) [Cholestanol]	11.3
NC(COP(=O)(O)O)C(=O)O (centres undefined) [PS]	14.9
CC(C)=CCCC(C)C1CCC2(C)C3=C(CCC12C)C1(C)CCC(O)C(C)(C)C1CC3 (centres undefined) [lanosterol]	15
CC(CCC(=O)NCC(=O)O)C1CCC2C3CCC4CC(O)CCC4(C)C3CCC12C (centres undefined) [G-LCA]	2.9
CCC(CCC(C)C1CCC2C3CC=C4CC(OC5OC(CO)C(O)C(O)C5O)CCC4(C)C3CCC12C)C(C)C (centres undefined) [betaSitosterolglucoside]	12.6
CCC(CCC(C)C1CCC2C3CC=C4CC(O)CCC4(C)C3CCC12C)C(C)C (centres undefined) [BSitosterol]	16.6

The remaining lines, values ahead:

LC retention time [min]	SMILES
10.3	CCCCCCC=CCCCCCCCCCC(=O)O [cis-vaccenic_acid]
12.2	CCCCCCCC/C=C\CCCCCCCCCC(=O)O [cis-11-eicosenoic acid]
5.8	CCCCCCCCC=CCCCCCCCC(=O)OC(CC(=O)[O-])C[N+](C)(C)C (centres undefined) [Oleoyl-CAR]
15.8	CCCCCCCCCCCCCCCCCCCCCC(=O)O [BehenicAcid]
2	NC(CF)(C(=O)O)C(O)CCc1ccccc1 (centres undefined) [T-LCA]
8.9	CCCCC/C=C\C/C=C\CCCCCCCC(=O)O [linoleic acid]
4.3	CCCCCCCCCCCCCC=CC(O)C(N)CO [D-sphingosine]
17	CCCCCCCCC=CCCCCCCCC(=O)OCC(COP(=O)([O-])OCC[N+](C)(C)C)OC(=O)CCCCCCCC=CCCCCCCCC (centres undefined) [1,2dioleoyl_PC]
7.6	CCCCCC=CCC=CCCCCCCCC(=O)OCC(O)CO (racemic) [1linoleoyl-rac-GL]
8.4	CCCCCCC=CCCCCCCCC(=O)O [palmitoleic_acid]
13.9	CCCCCCCCCCCCCCCCCCCC(=O)O [arachidic acid]
6.6	CCCCC=CCCCCCCCC(=O)O [MiristoleicAcid]
12	CCCCCCCCCCCCCCCCCC(=O)O [StearicAcid]
19.4	CCCCCCCCCCCCCC=CC(O)C(CO)NC(=O)CCCCCCCCCCCCCCCCC (centres undefined) [CER_893]
10.3	CCCCCCCCC=CCCCCCCCC(=O)O [oleic_acid]
7	CCCCCCC=CCCCCCCCC(=O)OCC(O)CO (racemic) [1monopalmitoleoyl-rac-GL]
8	CCCCCCCCCCCCCC(=O)O [MirysticAcid]

LC retention time [min]	SMILES
17.4	CCCCCCCCC=CCCCCCCCC(=O)OCC(COP(=O)(O)OCCN)OC(=O)CCCCCCCC=CCCCCCCCC (centres undefined) [1,2dioleoyl_PE]
7.8	CCC=CCC=CCC=CCCCCCCCC(=O)O [linolenic acid]
11	CCCCCCCCCCCCCCCCC(=O)O [margaric acid]
2.1	CC(CCC(=O)O)C1CCC2C3CC(O)C4CC(O)CCC4(C)C3CCC12C (centres undefined) [HDCA]
17.8	CCCCCCCCCCCCCCCCCCCCCCCC(=O)O [lignoceric acid]
5.4	CCCCCCCCCCCCCCCC(=O)OC(CC(=O)[O-])C[N+](C)(C)C (centres undefined) [C16-CAR]
8.8	CCCCCCCCC=CCCCCCCCC(=O)OCC(O)CO (stereo not drawn) [1oleoyl_rac_GL]
9.9	CCCCCCCCCCCCCCCC(=O)O [palmitic_acid]
23.6	CCCCCC=CCC=CCCCCCCCC(=O)OCC(COC(=O)CCCCCCCC=CCC=CCCCCC)OC(=O)CCCCCCCC=CCC=CCCCCC (centres undefined) [Glyceryltrilinoleate]
24.2	CCCCCCCCC=CCCCCCCCC(=O)OCC(COC(=O)CCCCCCCC=CCCCCCCCC)OC(=O)CCCCCCCC=CCCCCCCCC (centres undefined) [glyceryltrioleate]
15.7	CCCCCCCCC=CCCCCCCCC(=O)OCC(COP(=O)(O)OCC(O)CO)OC(=O)CCCCCCCC=CCCCCCCCC (centres undefined) [1,2dioleoyl_GLP_Na]
5.9	CCCCCCCCCCCCCCCC(=O)OCC(O)COP(=O)([O-])OCC[N+](C)(C)C (centres undefined) [1-palmitoyl-sn-glycero-3PC]
14	CCCCCCCCC=CCCCCCCCCCCCC(=O)O [erucic acid]
24.2	CCCCCCC=CCCCCCCCC(=O)OCC(COC(=O)CCCCCCCC=CCCCCCC)OC(=O)CCCCCCCC=CCCCCCC (centres undefined) [glyceryltripalmitoleate]
8.4	CCC=CCC=CCC=CCC=CCC=CCC=CCCC(=O)O [DocosahexaenoicAcid]
14.7	CCCCCC=CCC=CCCCCCCCC(=O)OCC(COP(=O)(O)OCC[N+](C)(C)C)OC(=O)CCCCCCCC=CCC=CCCCCC (centres undefined) [1,2dilinoleoyl_PC]
